As usually defined, the IC50 is the point on the concentration scale where inhibition reaches its midpoint. The low end stands for inhibition by little substance, the high end for a need for much substance.

Results on six compounds are retold here after ChEMBL document CHEMBL1134448, “Design, synthesis, and proposed active site binding analysis of monocyclic 2-azetidinone inhibitors of prostate specific antigen” (J Med Chem, 2001).

The target in the assay is Prostate-specific antigen (KLK3) (Homo sapiens) (UniProt P07288). The assay is described as follows: Inhibition of Prostate specific antigen PSA (Serine Protease).
Chain of Prostate-specific antigen (KLK3) (Homo sapiens) (P07288 whole entry, looked up): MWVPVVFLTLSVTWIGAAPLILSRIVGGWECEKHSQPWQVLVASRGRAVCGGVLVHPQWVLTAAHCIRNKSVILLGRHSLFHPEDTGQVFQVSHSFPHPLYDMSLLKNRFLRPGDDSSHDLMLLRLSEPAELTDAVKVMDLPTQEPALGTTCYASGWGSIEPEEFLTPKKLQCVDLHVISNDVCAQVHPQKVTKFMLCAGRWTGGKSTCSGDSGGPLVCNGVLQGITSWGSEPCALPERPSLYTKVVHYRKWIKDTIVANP
In turn, `O=C(O)c1ccc(COC(=O)[C@@H]2[C@H](Cc3ccc(O)cc3)C(=O)N2C(=O)Cc2cccc(C(=O)OCc3ccccc3)c2)cc1` had an IC50 of 3.5 µM.

In turn, `O=C(O)c1ccc(COC(=O)[C@@H]2[C@H](Cc3ccccc3)C(=O)N2C(=O)Cc2cccc(C(=O)OCc3ccccc3)c2)cc1` yielded an IC50 of 8.98 µM. Against the preceding compound, the IC50 is about 2.6-fold higher.

Compound `O=C(O)c1ccc(COC(=O)c2cccc(CC(=O)N3C(=O)[C@@H](Cc4ccccc4)[C@H]3C(=O)OCc3ccc(C(=O)O)cc3)c2)cc1` displayed an IC50 of 5.84 µM.

Take `O=C(OCc1ccccc1)c1cccc(CC(=O)N2C(=O)[C@@H](Cc3ccccc3)[C@H]2C(=O)OCc2ccccc2)c1`: half-maximal inhibition (IC50) was put at 1.43 µM. This IC50 lies about 4.1-fold lower than the previous one.

In turn, `O=C(OCc1ccccc1)c1cccc(CC(=O)N2C(=O)[C@@H](Cc3ccc(O)cc3)[C@H]2C(=O)OCc2ccccc2)c1` (stereo in doubt; 16) returned an IC50 of 0.348 µM.

Compound `O=C(OCc1ccccc1)c1cccc(CC(=O)N2C(=O)[C@@H](Cc3ccc(O)cc3)[C@H]2C(=O)OCc2ccccc2)c1` (stereo in doubt; (3S,4S)-18) registered an IC50 of 0.226 µM.
